Experiments:
[1] = test system: plasma levels of free glycerol; assay: Effect of oral administration on plasma levels of free glycerol in the empty rat; type: in vivo, rat (COBS CD (SD) BR male); conditions: for Percent variations of plasma free glycerol with respect to the controls: empty rat; for Activity on free glycerol: 30 mg/kg oral; for Activity on free glycerol / Time within which the effect on free glycerol disappears: rat; for Time within which the effect on free glycerol disappears: 100 mg/kg oral
[2] = test system: plasma levels of triglycerides; assay: Effect of oral administration on plasma levels of triglycerides in the empty rat; type: in vivo, rat (COBS CD (SD) BR male); conditions: for Percent variations of plasma triglycerides with respect to the controls: empty rat; for Time within which the effect on triglycerides disappears: rat
[3] = test system: plasma levels of cholesterol; assay: Effect of oral administration on plasma levels of cholesterol in the empty rat; type: in vivo, rat (COBS CD (SD) BR male); conditions: for Percent variations of plasma cholesterol with respect to the controls: 100 mg/kg oral referred to nicotinic acid, empty rat
plasma levels of FFA = assay: Effect of oral administration on plasma levels of FFA in the empty rat; conditions: for Percent variations of plasma FFA with respect to the controls: empty rat
in vivo [4] = conditions: rat
rats of both sexes = assay: Acute toxicity (LD50) in rats of both sexes, oral and intraperitoneal route; conditions: rat
[5] = Plasma levels (kinetics) of free nicotinic acid after oral administration in the rat; conditions: 100 mg/kg p.o.
in vivo [6] = conditions: rat, po, 100 mg/kg
[7] = Acute toxicity (LD50) in rats of both sexes, oral and intraperitoneal route; conditions: rat, in vivo, LD50, rat
[8] = 30 mg/kg oral referred to nicotinic acid, 1 h
[9] = 30 mg/kg oral referred to nicotinic acid, 2 h
[10] = 30 mg/kg oral referred to nicotinic acid, 4 h
[11] = 30 mg/kg oral referred to nicotinic acid, 6 h
[12] = 30 mg/kg oral referred to nicotinic acid, 8 h
[13] = 30 mg/kg oral referred to nicotinic acid, 10 h
[14] = 30 mg/kg oral referred to nicotinic acid, 12 h
[15] = 30 mg/kg oral referred to nicotinic acid, 16 h
[16] = 100 mg/kg oral referred to nicotinic acid, 2 h
[17] = 100 mg/kg oral referred to nicotinic acid, 4 h
[18] = 100 mg/kg oral referred to nicotinic acid, 6 h
[19] = 100 mg/kg oral referred to nicotinic acid, 8 h
[20] = 100 mg/kg oral referred to nicotinic acid, 10 h
[21] = 100 mg/kg oral referred to nicotinic acid, 16 h
[22] = 100 mg/kg oral referred to nicotinic acid, 24 h
[23] = 100 mg/kg oral referred to nicotinic acid, 32 h

O=C(N[C@H]1C(OC(=O)c2cccnc2)O[C@H](COC(=O)c2cccnc2)[C@@H](OC(=O)c2cccnc2)[C@@H]1OC(=O)c1cccnc1)c1cccnc1 (stereo partly drawn) [GLUN, N-nicotinoyl-glucosamine tetranicotinate]
Percent variations of plasma free glycerol with respect to the controls [1, 8]: -27%
Percent variations of plasma free glycerol with respect to the controls [1, 9]: -63%
Percent variations of plasma free glycerol with respect to the controls [1, 10]: -7%
Percent variations of plasma free glycerol with respect to the controls [1, 11]: -17%
Percent variations of plasma free glycerol with respect to the controls [1, 12]: -25%
Percent variations of plasma free glycerol with respect to the controls [1, 13]: -4%
Percent variations of plasma free glycerol with respect to the controls [1, 14]: -5%
Percent variations of plasma free glycerol with respect to the controls [1, 15]: +5%
Activity on free glycerol [1]: active at the 2nd hour
Percent variations of plasma free glycerol with respect to the controls [1, 16]: -81%
Percent variations of plasma free glycerol with respect to the controls [1, 17]: -47%
Percent variations of plasma free glycerol with respect to the controls [1, 18]: -24%
Percent variations of plasma free glycerol with respect to the controls [1, 19]: -32%
Percent variations of plasma free glycerol with respect to the controls [1, 20]: -41%
Percent variations of plasma free glycerol with respect to the controls [1, 21]: +3%
Percent variations of plasma free glycerol with respect to the controls [1, 22]: 0%
Percent variations of plasma free glycerol with respect to the controls [1, 23]: +16%
Time within which the effect on free glycerol disappears [1]: within the sixteenth hour
Percent variations of plasma triglycerides with respect to the controls [2, 8]: -2%
Percent variations of plasma triglycerides with respect to the controls [2, 9]: -45%
Percent variations of plasma triglycerides with respect to the controls [2, 10]: -44%
Percent variations of plasma triglycerides with respect to the controls [2, 11]: -41%
Percent variations of plasma triglycerides with respect to the controls [2, 12]: -36%
Percent variations of plasma triglycerides with respect to the controls [2, 13]: -62%
Percent variations of plasma triglycerides with respect to the controls [2, 14]: -31%
Percent variations of plasma triglycerides with respect to the controls [2, 15]: +31%
Time within which the effect on triglycerides disappears ([2]; 30 mg/kg oral): ≤ 16 h
Percent variations of plasma triglycerides with respect to the controls [2, 16]: -52%
Percent variations of plasma triglycerides with respect to the controls [2, 17]: -65%
Percent variations of plasma triglycerides with respect to the controls [2, 18]: -72%
Percent variations of plasma triglycerides with respect to the controls [2, 19]: -75%
Percent variations of plasma triglycerides with respect to the controls [2, 20]: -65%
Percent variations of plasma triglycerides with respect to the controls [2, 21]: -67%
Percent variations of plasma triglycerides with respect to the controls [2, 22]: 3%
Percent variations of plasma triglycerides with respect to the controls [2, 23]: +13%
Time within which the effect on triglycerides disappears ([2]; 100 mg/kg oral): within the twenty fourth hour
Percent variations of plasma cholesterol with respect to the controls ([3]; 4 h): +9%
Percent variations of plasma cholesterol with respect to the controls ([3]; 6 h): -4%
Percent variations of plasma cholesterol with respect to the controls ([3]; 8 h): -13%
Percent variations of plasma cholesterol with respect to the controls ([3]; 10 h): -29%
Percent variations of plasma cholesterol with respect to the controls ([3]; 16 h): -53%
Percent variations of plasma cholesterol with respect to the controls ([3]; 24 h): -37%
Percent variations of plasma cholesterol with respect to the controls ([3]; 32 h): -42%
Percent variations of plasma cholesterol with respect to the controls ([3]; 48 h): -29%
Cholesterol lowering effect with respect to that of the reference standards ([3]; 100 mg/kg oral, rat): constantly more relevant
Lowering of cholesterolemy ([3]; 100 mg/kg oral, rat): depresses the cholesterolemy from the eighth to the fortyeighth hour
Percent variations of plasma FFA with respect to the controls (plasma levels of FFA; [8]): -33%
Percent variations of plasma FFA with respect to the controls (plasma levels of FFA; [9]): -67%
Percent variations of plasma FFA with respect to the controls (plasma levels of FFA; [10]): -3%
Percent variations of plasma FFA with respect to the controls (plasma levels of FFA; [11]): -16%
Depression of plasma FFA (plasma levels of FFA; 30 mg/kg oral, rat): still active in the second hour
Percent variations of plasma FFA with respect to the controls (plasma levels of FFA; [16]): -74%
Percent variations of plasma FFA with respect to the controls (plasma levels of FFA; [17]): -41%
Percent variations of plasma FFA with respect to the controls (plasma levels of FFA; [18]): -28%
Percent variations of plasma FFA with respect to the controls (plasma levels of FFA; [19]): -43%
Percent variations of plasma FFA with respect to the controls (plasma levels of FFA; [20]): -40%
Percent variations of plasma FFA with respect to the controls (plasma levels of FFA; [21]): -7%
Percent variations of plasma FFA with respect to the controls (plasma levels of FFA; [22]): -2%
Time within which the effect on FFA disappears (plasma levels of FFA; 100 mg/kg oral, rat): ≤ 16 h
LD50 (in vivo [4]; ip, female): 6750 mg/kg
LD50 (in vivo [4]; ip, male): 6650 mg/kg
LD50 (in vivo [4]; po, female, os): > 8000 mg/kg
LD50 (in vivo [4]; po, male, os): > 8000 mg/kg
Acute toxicity lower than that of nicotinic acid (rats of both sexes; intraperitoneal route): 20 times
Acute toxicity lower than that of nicotinic acid (rats of both sexes; oral route): 2 times

O=C(O)c1cccnc1 [NICOTINIC ACID, nicotinic acid]
Percent variations of plasma free glycerol with respect to the controls [1, 8]: -72%
Percent variations of plasma free glycerol with respect to the controls [1, 9]: -27%
Percent variations of plasma free glycerol with respect to the controls [1, 10]: +16%
Percent variations of plasma free glycerol with respect to the controls [1, 11]: +15%
Activity on free glycerol [1]: active only after 1 hour
Percent variations of plasma free glycerol with respect to the controls [1, 16]: -73%
Percent variations of plasma free glycerol with respect to the controls [1, 17]: -71%
Percent variations of plasma free glycerol with respect to the controls [1, 18]: +9%
Percent variations of plasma free glycerol with respect to the controls [1, 19]: +11%
Percent variations of plasma free glycerol with respect to the controls [1, 20]: +16%
Percent variations of plasma free glycerol with respect to the controls [1, 21]: -12%
Percent variations of plasma free glycerol with respect to the controls [1, 22]: -4%
Time within which the effect on free glycerol disappears [1]: within the sixth hour
Peak plasma concentration of free nicotinic acid, times higher than that of niceritrole [5]: about two times higher
Percent variations of plasma triglycerides with respect to the controls [2, 8]: -49%
Percent variations of plasma triglycerides with respect to the controls [2, 9]: -49%
Percent variations of plasma triglycerides with respect to the controls [2, 10]: +8%
Percent variations of plasma triglycerides with respect to the controls [2, 11]: +17%
Time within which the effect on triglycerides disappears ([2]; 30 mg/kg oral): ≤ 4 h
Percent variations of plasma triglycerides with respect to the controls [2, 16]: -57%
Percent variations of plasma triglycerides with respect to the controls [2, 17]: -58%
Percent variations of plasma triglycerides with respect to the controls [2, 18]: -59%
Percent variations of plasma triglycerides with respect to the controls [2, 19]: -38%
Percent variations of plasma triglycerides with respect to the controls [2, 20]: +4%
Percent variations of plasma triglycerides with respect to the controls [2, 21]: +21%
Percent variations of plasma triglycerides with respect to the controls [2, 22]: -16%
Time within which the effect on triglycerides disappears ([2]; 100 mg/kg oral): within the tenth hour
Percent variations of plasma cholesterol with respect to the controls ([3]; 4 h): -12%
Percent variations of plasma cholesterol with respect to the controls ([3]; 6 h): -12%
Percent variations of plasma cholesterol with respect to the controls ([3]; 8 h): -13%
Percent variations of plasma cholesterol with respect to the controls ([3]; 10 h): -17%
Percent variations of plasma cholesterol with respect to the controls ([3]; 16 h): -14%
Percent variations of plasma cholesterol with respect to the controls ([3]; 24 h): -27%
Lowering of cholesterolemy ([3]; 100 mg/kg oral, rat): lowered at the eighth, tenth and twenty fourth hour
Percent variations of plasma FFA with respect to the controls (plasma levels of FFA; [8]): -81%
Percent variations of plasma FFA with respect to the controls (plasma levels of FFA; [9]): -43%
Percent variations of plasma FFA with respect to the controls (plasma levels of FFA; [10]): +23%
Percent variations of plasma FFA with respect to the controls (plasma levels of FFA; [11]): +11%
FFA rebound (plasma levels of FFA; 30 mg/kg oral, rat): causes FFA rebound in the fourth hour
Percent variations of plasma FFA with respect to the controls (plasma levels of FFA; [16]): -77%
Percent variations of plasma FFA with respect to the controls (plasma levels of FFA; [17]): -68%
Percent variations of plasma FFA with respect to the controls (plasma levels of FFA; [18]): +23%
Percent variations of plasma FFA with respect to the controls (plasma levels of FFA; [19]): +23%
Percent variations of plasma FFA with respect to the controls (plasma levels of FFA; [20]): +13%
Percent variations of plasma FFA with respect to the controls (plasma levels of FFA; [21]): -9%
Percent variations of plasma FFA with respect to the controls (plasma levels of FFA; [22]): -5%
FFA rebound (plasma levels of FFA; 100 mg/kg oral, rat): eighth
Time within which the effect on FFA disappears (plasma levels of FFA; 100 mg/kg oral, rat): ≤ 6 h
Tmax (in vivo [6]): ≤ 30 min
concentration at 0.5 h (in vivo [6]): 108000 ng/mL
concentration at 1 h (in vivo [6]): 106000 ng/mL
concentration at 2 h (in vivo [6]): 98300 ng/mL
concentration at 4 h (in vivo [6]): 10600 ng/mL
concentration at 6 h (in vivo [6]): 760 ng/mL
concentration at 8 h (in vivo [6]): 250 ng/mL
concentration at 12 h (in vivo [6]): 490 ng/mL
concentration at 16 h (in vivo [6]): 120 ng/mL
LD50 ([7]; ip, female): 296 mg/kg
LD50 ([7]; ip, male): 328 mg/kg
LD50 ([7]; po, female, os): 3850 mg/kg
LD50 ([7]; po, male, os): 3860 mg/kg

— US4358441A, “Nicotinic derivatives of glucosamine and related pharmaceutical compositions” (Laboratorio Guidotti & C. S.p.A., priority 1980, dated 1982)
